Assay results taken from ChEMBL document CHEMBL3885881, “DrugMatrix”.

Species on record: Rattus norvegicus
Test: DrugMatrix - Regimen: Daily Repeat
Format: toxicity, organism-based, Sprague-Dawley
Parameters: regimen Daily Repeat, gender Male, age 6-8 weeks
Conditions: in vivo, iv, […], vehicle 100 % SALINE; for ALANINE AMINOTRANSFERASE / ALBUMIN / ALKALINE PHOSPHATASE / ASPARTATE AMINOTRANSFERASE / BLOOD UREA NITROGEN / CARBON DIOXIDE / CHLORIDE / CHOLESTEROL / CREATINE PHOSPHOKINASE / CREATININE / GLUCOSE / LACTATE DEHYDROGENASE / LIPASE / PHOSPHORUS / POTASSIUM / SODIUM / TOTAL BILIRUBIN / TOTAL PROTEIN / URIC ACID: tissue Plasma; for ABSOLUTE BASOPHIL / ABSOLUTE EOSINOPHIL / ABSOLUTE LYMPHOCYTE / ABSOLUTE MONOCYTE / ABSOLUTE SEGMENTED NEUTROPHIL / BASOPHIL / EOSINOPHIL / ERYTHROCYTE COUNT / HEMATOCRIT / HEMOGLOBIN / LEUKOCYTE COUNT / LYMPHOCYTE / MEAN CORPUSCULAR HEMOGLOBIN / MEAN CORPUSCULAR HEMOGLOBIN CONCENTRATION / MEAN CORPUSCULAR VOLUME / MONOCYTE / NEUTROPHIL / NUCLEATED RED BLOOD CELLS / PLATELET COUNT: tissue Blood
[1] = 72 h, dose 0.15 mg/Kg, dose level Low, time 3 day
[2] = 72 h, dose 1.5 mg/Kg, dose level High, time 3 day
[3] = 120 h, dose 0.15 mg/Kg, dose level Low, time 5 day
[4] = 120 h, dose 1.5 mg/Kg, dose level High, time 5 day

CCC1=C[C@@H]2CN(C1)Cc1c([nH]c3ccccc13)[C@@](C(=O)OC)(c1cc3c(cc1OC)N(C)[C@H]1[C@@](O)(C(=O)OC)[C@H](OC(C)=O)[C@]4(CC)C=CCN5CC[C@]31[C@@H]54)C2 [VINORELBINE] was tested, and the “ALANINE AMINOTRANSFERASE” value [1] was 59 u/L, the ALBUMIN [1] was 4.53 G/DL and the “ALKALINE PHOSPHATASE” value [1] was 404 u/L. The “ASPARTATE AMINOTRANSFERASE” value [1] was 88.67 u/L, the “BLOOD UREA NITROGEN” value [1] was 17.33 mg/dL and the “CARBON DIOXIDE” value [1] was 27.33 mmol/L. The CHLORIDE [1] was 101 MEQ/L, the CHOLESTEROL [1] was 68.67 mg/dL and the “CREATINE PHOSPHOKINASE” value [1] was 237.67 u/L. For the same compound, the CREATININE [1] was 0.23 mg/dL, the GLUCOSE [1] was 167.33 mg/dL and the “LACTATE DEHYDROGENASE” value [1] was 308.67 u/L. It also gave an LIPASE [1] of 9.67 u/L, a PHOSPHORUS [1] of 13.7 mg/dL and a POTASSIUM [1] of 6.88 MEQ/L. The SODIUM [1] was 145.07 MEQ/L, the “TOTAL BILIRUBIN” value [1] was 0.23 mg/dL and the “TOTAL PROTEIN” value [1] was 6.33 G/DL. The “URIC ACID” value [1] was 2.1 mg/dL, the “ALANINE AMINOTRANSFERASE” value [2] was 45.33 u/L and the ALBUMIN [2] was 4.47 G/DL. The “ALKALINE PHOSPHATASE” value [2] was 359.33 u/L, the “ASPARTATE AMINOTRANSFERASE” value [2] was 137.33 u/L and the “BLOOD UREA NITROGEN” value [2] was 20.67 mg/dL. The “CARBON DIOXIDE” value [2] was 24 mmol/L, the CHLORIDE [2] was 103 MEQ/L and the CHOLESTEROL [2] was 72.67 mg/dL. For the same compound, the “CREATINE PHOSPHOKINASE” value [2] was 671.33 u/L, the CREATININE [2] was 0.17 mg/dL and the GLUCOSE [2] was 185.67 mg/dL. For the same compound, the “LACTATE DEHYDROGENASE” value [2] was 160.33 u/L, the LIPASE [2] was 10 u/L and the PHOSPHORUS [2] was 13 mg/dL. The POTASSIUM [2] was 5.92 MEQ/L, the SODIUM [2] was 146 MEQ/L and the “TOTAL BILIRUBIN” value [2] was 0.1 mg/dL. The “TOTAL PROTEIN” value [2] was 6.2 G/DL, the “URIC ACID” value [2] was 2.37 mg/dL and the “ABSOLUTE BASOPHIL” value [3] was 0 CELLS/uL. For the same compound, the “ABSOLUTE EOSINOPHIL” value [3] was 49 CELLS/uL, the “ABSOLUTE LYMPHOCYTE” value [3] was 14282 CELLS/uL and the “ABSOLUTE MONOCYTE” value [3] was 49 CELLS/uL. For the same compound, the “ABSOLUTE SEGMENTED NEUTROPHIL” value [3] was 2420 CELLS/uL, the BASOPHIL [3] was 0% and the EOSINOPHIL [3] was 0.33%. The “ERYTHROCYTE COUNT” value [3] was 5.78 x10E6/uL, the HEMATOCRIT [3] was 36.1% and the HEMOGLOBIN [3] was 14.13 G/DL. The “LEUKOCYTE COUNT” value [3] was 16.8 x10E3/uL, the LYMPHOCYTE [3] was 84.67% and the “MEAN CORPUSCULAR HEMOGLOBIN” value [3] was 24.47 pg. The “MEAN CORPUSCULAR HEMOGLOBIN CONCENTRATION” value [3] was 39.2 G/DL, the “MEAN CORPUSCULAR VOLUME” value [3] was 62.5 fL and the MONOCYTE [3] was 0.33%. For the same compound, the NEUTROPHIL [3] was 14.67%, the “NUCLEATED RED BLOOD CELLS” value [3] was 0 /100WBC and the “PLATELET COUNT” value [3] was 1168.33 x10E3/uL. The “ABSOLUTE BASOPHIL” value [4] was 0 CELLS/uL, the “ABSOLUTE EOSINOPHIL” value [4] was 0 CELLS/uL and the “ABSOLUTE LYMPHOCYTE” value [4] was 6817.33 CELLS/uL. For the same compound, the “ABSOLUTE MONOCYTE” value [4] was 24.67 CELLS/uL, the “ABSOLUTE SEGMENTED NEUTROPHIL” value [4] was 24.67 CELLS/uL and the BASOPHIL [4] was 0%. For the same compound, the EOSINOPHIL [4] was 0%, the “ERYTHROCYTE COUNT” value [4] was 5.47 x10E6/uL and the HEMATOCRIT [4] was 31.93%. The HEMOGLOBIN [4] was 12.93 G/DL, the “LEUKOCYTE COUNT” value [4] was 6.87 x10E3/uL and the LYMPHOCYTE [4] was 99.33%. For the same compound, the “MEAN CORPUSCULAR HEMOGLOBIN” value [4] was 23.67 pg, the “MEAN CORPUSCULAR HEMOGLOBIN CONCENTRATION” value [4] was 40.5 G/DL and the “MEAN CORPUSCULAR VOLUME” value [4] was 58.4 fL. The MONOCYTE [4] was 0.33%, the NEUTROPHIL [4] was 0.33% and the “NUCLEATED RED BLOOD CELLS” value [4] was 0 /100WBC. For the same compound, the “PLATELET COUNT” value [4] was 359 x10E3/uL, the “ALANINE AMINOTRANSFERASE” value [3] was 48.33 u/L and the ALBUMIN [3] was 4.33 G/DL. The “ALKALINE PHOSPHATASE” value [3] was 436.67 u/L, the “ASPARTATE AMINOTRANSFERASE” value [3] was 85 u/L and the “BLOOD UREA NITROGEN” value [3] was 16.67 mg/dL. For the same compound, the “CARBON DIOXIDE” value [3] was 27 mmol/L, the CHLORIDE [3] was 100.67 MEQ/L and the CHOLESTEROL [3] was 65.33 mg/dL. For the same compound, the “CREATINE PHOSPHOKINASE” value [3] was 245 u/L, the CREATININE [3] was 0.2 mg/dL and the GLUCOSE [3] was 166.33 mg/dL. The “LACTATE DEHYDROGENASE” value [3] was 152 u/L, the LIPASE [3] was 9.33 u/L and the PHOSPHORUS [3] was 12.43 mg/dL. For the same compound, the POTASSIUM [3] was 7.02 MEQ/L, the SODIUM [3] was 145.37 MEQ/L and the “TOTAL BILIRUBIN” value [3] was 0.2 mg/dL. For the same compound, the “TOTAL PROTEIN” value [3] was 6.27 G/DL, the “URIC ACID” value [3] was 2.07 mg/dL and the “ALANINE AMINOTRANSFERASE” value [4] was 58.67 u/L. The ALBUMIN [4] was 4.23 G/DL, the “ALKALINE PHOSPHATASE” value [4] was 367.67 u/L and the “ASPARTATE AMINOTRANSFERASE” value [4] was 138.67 u/L. The “BLOOD UREA NITROGEN” value [4] was 15 mg/dL, the “CARBON DIOXIDE” value [4] was 31.33 mmol/L and the CHLORIDE [4] was 100 MEQ/L. For the same compound, the CHOLESTEROL [4] was 75 mg/dL, the “CREATINE PHOSPHOKINASE” value [4] was 193 u/L and the CREATININE [4] was 0.19 mg/dL. The GLUCOSE [4] was 143.67 mg/dL, the “LACTATE DEHYDROGENASE” value [4] was 98 u/L and the LIPASE [4] was 9 u/L. It also gave a PHOSPHORUS [4] of 10.6 mg/dL, a POTASSIUM [4] of 6.34 MEQ/L and an SODIUM [4] of 146.4 MEQ/L. The “TOTAL BILIRUBIN” value [4] was 0.2 mg/dL, the “TOTAL PROTEIN” value [4] was 6.13 G/DL and the “URIC ACID” value [4] was 0.9 mg/dL.
